pIC50: −log10 of the molar value. Non-standard residues stand in square brackets, D forms with d. Residues, ends and D or L forms follow the SMILES beside them. *: point of attachment. Ala(indol-2-yl) = N[C@@H](Cc1cc2ccccc2[nH]1)C(=O)O; Asu = N[C@@H](CCCCCC(=O)O)C(=O)O; β3hI = CC[C@H](C)[C@H](N)CC(=O)O; NHOH = ON*
What was measured:
Histone deacetylase 8 = target: T1, Histone deacetylase 8 (Homo sapiens, UniProt Q9BY41); assay: Inhibition of recombinant HDAC8
T1 sequence (Q9BY41 whole entry): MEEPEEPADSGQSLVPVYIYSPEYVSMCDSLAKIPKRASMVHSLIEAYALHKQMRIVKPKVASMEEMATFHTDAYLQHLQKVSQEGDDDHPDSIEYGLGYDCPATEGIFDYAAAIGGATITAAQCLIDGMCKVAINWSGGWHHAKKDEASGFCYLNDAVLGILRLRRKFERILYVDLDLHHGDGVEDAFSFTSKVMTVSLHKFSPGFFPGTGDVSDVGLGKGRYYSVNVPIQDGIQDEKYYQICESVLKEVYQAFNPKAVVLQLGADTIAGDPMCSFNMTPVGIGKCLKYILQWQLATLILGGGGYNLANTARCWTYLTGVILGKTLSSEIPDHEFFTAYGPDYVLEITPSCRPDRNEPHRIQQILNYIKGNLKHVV

Histone deacetylase = details: hela
Description: Inhibition of HDAC in human HeLa cells

Histone deacetylase 1 = Histone deacetylase 1 (Homo sapiens, UniProt Q13547); assay: Inhibition of recombinant HDAC1
[1] = target: T2, Protein deacetylase HDAC6 (Homo sapiens, UniProt Q9UBN7); assay: Inhibition of recombinant HDAC6
T2 sequence (Q9UBN7 whole entry): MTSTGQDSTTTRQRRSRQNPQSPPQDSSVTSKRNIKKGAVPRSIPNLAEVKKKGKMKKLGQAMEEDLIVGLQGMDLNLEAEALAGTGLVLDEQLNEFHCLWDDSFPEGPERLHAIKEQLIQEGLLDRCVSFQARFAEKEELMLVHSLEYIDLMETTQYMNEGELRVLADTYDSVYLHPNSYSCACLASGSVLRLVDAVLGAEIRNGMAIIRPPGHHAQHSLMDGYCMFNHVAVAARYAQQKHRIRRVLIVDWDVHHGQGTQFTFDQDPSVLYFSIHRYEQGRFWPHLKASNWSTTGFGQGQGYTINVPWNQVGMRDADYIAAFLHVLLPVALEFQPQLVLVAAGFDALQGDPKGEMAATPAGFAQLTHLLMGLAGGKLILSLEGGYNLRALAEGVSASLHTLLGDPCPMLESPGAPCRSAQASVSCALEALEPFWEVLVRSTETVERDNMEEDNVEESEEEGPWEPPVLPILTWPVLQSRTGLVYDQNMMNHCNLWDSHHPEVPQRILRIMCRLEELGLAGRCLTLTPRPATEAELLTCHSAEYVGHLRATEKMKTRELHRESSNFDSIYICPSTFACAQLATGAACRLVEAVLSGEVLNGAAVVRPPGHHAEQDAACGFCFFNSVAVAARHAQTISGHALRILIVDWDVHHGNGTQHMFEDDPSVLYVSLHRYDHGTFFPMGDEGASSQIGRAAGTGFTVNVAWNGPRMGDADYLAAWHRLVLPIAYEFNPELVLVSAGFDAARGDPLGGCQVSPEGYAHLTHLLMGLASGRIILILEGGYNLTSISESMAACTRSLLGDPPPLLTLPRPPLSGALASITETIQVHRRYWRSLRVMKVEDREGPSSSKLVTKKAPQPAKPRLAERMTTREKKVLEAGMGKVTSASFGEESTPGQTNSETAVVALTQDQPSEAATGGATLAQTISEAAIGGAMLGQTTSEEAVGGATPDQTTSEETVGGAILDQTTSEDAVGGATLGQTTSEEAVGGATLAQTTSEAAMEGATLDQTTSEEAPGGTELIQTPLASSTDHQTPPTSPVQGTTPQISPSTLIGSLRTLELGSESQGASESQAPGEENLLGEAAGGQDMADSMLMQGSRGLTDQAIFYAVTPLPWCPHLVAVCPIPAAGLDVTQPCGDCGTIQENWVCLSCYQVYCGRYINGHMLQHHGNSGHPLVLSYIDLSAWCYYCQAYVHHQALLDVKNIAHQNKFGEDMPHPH

Histone deacetylase 3 = Histone deacetylase 3 (Homo sapiens, UniProt O15379); assay: Inhibition of recombinant HDAC3
Histone deacetylase 2 = Histone deacetylase 2 (Homo sapiens, UniProt Q92769); assay: Inhibition of recombinant HDAC2
[2] = target: T3, Polyamine deacetylase HDAC10 (Homo sapiens, UniProt Q969S8); assay: Inhibition of HDAC10
T3 sequence (Q969S8 whole entry): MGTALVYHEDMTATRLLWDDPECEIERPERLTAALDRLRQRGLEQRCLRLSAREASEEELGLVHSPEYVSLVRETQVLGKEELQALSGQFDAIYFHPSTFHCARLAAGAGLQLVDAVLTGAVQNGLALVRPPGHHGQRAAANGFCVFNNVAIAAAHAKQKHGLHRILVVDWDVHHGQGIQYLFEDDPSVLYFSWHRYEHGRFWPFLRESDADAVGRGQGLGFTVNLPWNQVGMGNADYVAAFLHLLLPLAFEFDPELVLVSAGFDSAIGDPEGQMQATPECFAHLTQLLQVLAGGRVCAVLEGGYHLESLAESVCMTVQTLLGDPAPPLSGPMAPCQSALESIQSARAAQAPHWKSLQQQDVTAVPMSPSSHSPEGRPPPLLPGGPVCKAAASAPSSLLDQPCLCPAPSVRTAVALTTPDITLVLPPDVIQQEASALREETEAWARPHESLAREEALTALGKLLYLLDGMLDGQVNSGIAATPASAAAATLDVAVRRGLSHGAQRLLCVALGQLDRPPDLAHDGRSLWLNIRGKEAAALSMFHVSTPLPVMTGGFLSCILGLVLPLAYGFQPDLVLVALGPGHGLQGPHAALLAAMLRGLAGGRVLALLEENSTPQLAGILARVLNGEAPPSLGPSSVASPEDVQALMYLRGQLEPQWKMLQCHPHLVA

HCT-116 = assay: Antitumor activity against human HCT116 cells xenografted in mouse at 30 mg/kg; format: functional

Sequence of Histone deacetylase 3 (O15379 whole entry): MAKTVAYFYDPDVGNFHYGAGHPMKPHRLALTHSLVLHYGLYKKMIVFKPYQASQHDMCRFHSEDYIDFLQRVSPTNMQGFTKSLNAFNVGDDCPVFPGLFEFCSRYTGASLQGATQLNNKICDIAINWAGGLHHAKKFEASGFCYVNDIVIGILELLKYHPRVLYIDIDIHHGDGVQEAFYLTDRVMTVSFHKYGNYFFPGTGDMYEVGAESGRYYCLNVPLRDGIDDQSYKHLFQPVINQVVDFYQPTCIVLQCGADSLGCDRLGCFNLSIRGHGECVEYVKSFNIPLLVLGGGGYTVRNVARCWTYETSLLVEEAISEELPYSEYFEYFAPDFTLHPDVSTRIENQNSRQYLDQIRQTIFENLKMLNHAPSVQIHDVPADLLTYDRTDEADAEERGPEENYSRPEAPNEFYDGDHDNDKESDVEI
Sequence of Histone deacetylase 1 (Q13547 whole entry): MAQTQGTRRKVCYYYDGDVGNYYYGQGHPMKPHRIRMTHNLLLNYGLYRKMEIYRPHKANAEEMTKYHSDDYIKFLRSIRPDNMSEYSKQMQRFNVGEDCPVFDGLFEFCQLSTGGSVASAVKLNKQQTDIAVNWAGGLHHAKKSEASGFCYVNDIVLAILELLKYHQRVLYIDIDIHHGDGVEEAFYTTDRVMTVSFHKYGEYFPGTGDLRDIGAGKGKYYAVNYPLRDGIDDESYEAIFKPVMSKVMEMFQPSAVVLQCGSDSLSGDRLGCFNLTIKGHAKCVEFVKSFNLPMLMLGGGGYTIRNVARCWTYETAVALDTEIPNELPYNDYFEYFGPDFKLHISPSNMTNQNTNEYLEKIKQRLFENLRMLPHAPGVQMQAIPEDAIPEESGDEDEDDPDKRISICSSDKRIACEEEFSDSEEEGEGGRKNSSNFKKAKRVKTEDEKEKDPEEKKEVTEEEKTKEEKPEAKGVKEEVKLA
Sequence of Histone deacetylase 2 (Q92769 whole entry): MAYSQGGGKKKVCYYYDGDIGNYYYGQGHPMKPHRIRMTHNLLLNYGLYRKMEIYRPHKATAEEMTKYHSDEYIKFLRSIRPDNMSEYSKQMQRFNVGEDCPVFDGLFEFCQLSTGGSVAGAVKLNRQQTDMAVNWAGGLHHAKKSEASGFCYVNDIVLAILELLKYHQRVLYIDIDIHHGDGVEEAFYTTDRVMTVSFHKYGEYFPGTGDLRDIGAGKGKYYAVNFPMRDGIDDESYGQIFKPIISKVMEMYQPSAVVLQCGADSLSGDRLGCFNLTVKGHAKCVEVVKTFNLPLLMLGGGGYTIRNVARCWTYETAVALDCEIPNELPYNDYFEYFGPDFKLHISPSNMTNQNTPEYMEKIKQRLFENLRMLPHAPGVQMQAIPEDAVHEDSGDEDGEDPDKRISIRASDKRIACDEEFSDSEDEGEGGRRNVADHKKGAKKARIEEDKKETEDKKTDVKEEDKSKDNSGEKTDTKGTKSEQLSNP

## CC(=O)Nc1ccc(C(=O)Nc2cc(-c3cccs3)ccc2N)cc1
Histone deacetylase 8
  pIC50: < 4.70

## O=C(CS)NCCCCCC(=O)Nc1ccc2ncccc2c1
Histone deacetylase
  IC50: 900 nM

## N=C/C=N/c1ccc(C(=O)Nc2cc(-c3cccs3)ccc2N)cc1
Histone deacetylase 8
  pIC50: < 4.70
Histone deacetylase 1
  pIC50: 7.22
[1]
  pIC50: < 4.70
Histone deacetylase 3
  pIC50: < 4.70
Histone deacetylase 2
  pIC50: 7.70

## Cn1cc(/C=C/C(=O)NO)cc1C(=O)c1ccccc1
[2]
  pIC50: 7.30

## CCC(=O)CCCCC[C@@H]1NC(=O)CNC(=O)C[C@H]([C@@H](C)CC)NC(=O)[C@H](Cc2cc3ccccc3[nH]2)NC1=O
Histone deacetylase
  IC50: 19 nM

## CC[C@H](C)[C@H]1CC(=O)NCC(=O)N[C@@H](CCCCCC(=O)NO)C(=O)N[C@@H](Cc2cc3ccccc3[nH]2)C(=O)N1 (cyclo([Asu](NHOH)[Ala(indol-2-yl)][β3hI]G))
Histone deacetylase
  IC50: < 1 nM

## CC[C@H](C)[C@H]1CC(=O)NCC(=O)N[C@@H](CCCCCC(N)=O)C(=O)N[C@@H](Cc2cc3ccccc3[nH]2)C(=O)N1 (cyclo([Asu](NH2)[Ala(indol-2-yl)][β3hI]G))
Histone deacetylase
  IC50: 2700 nM

## Cn1c(/C=C/C(=O)NO)ccc1C(=O)c1ccccc1
[2]
  pIC50: 6.55

## CC(=O)Nc1ccc(C(=O)Nc2ccccc2N)cc1 [TACEDINALINE]
HCT-116
  inhibition in vivo at 30 mg/kg: 52%

## CC[C@H](C)[C@H]1CC(=O)NCC(=O)N[C@@H](CCCCCC(=O)O)C(=O)N[C@@H](Cc2cc3ccccc3[nH]2)C(=O)N1 (cyclo([Asu][Ala(indol-2-yl)][β3hI]G))
Histone deacetylase
  IC50: 300 nM

## CCC(=O)CCCCC[C@@H]1NC(=O)[C@H](C)NC(=O)C[C@H]([C@@H](C)CC)NC(=O)[C@H](Cc2cc3ccccc3[nH]2)NC1=O
Histone deacetylase
  IC50: 40 nM

## COc1ccc(C(=O)Nc2cc(-c3cccs3)ccc2N)cc1
Histone deacetylase 8
  pIC50: < 4.70
[1]
  pIC50: < 4.70
Histone deacetylase 3
  pIC50: < 4.70

## O=C(CS)NCCCCCC(=O)Nc1cccc2cccnc12
Histone deacetylase
  IC50: 900 nM

## CCC(=O)CCCCC[C@@H]1NC(=O)CNC(=O)C[C@H]([C@@H](C)CC)NC(=O)[C@H](Cc2cc3ccccc3[nH]2)N(C)C1=O
Histone deacetylase
  IC50: > 10000 nM

## CCC(=O)CCCCC[C@@H]1NC(=O)CNC(=O)C[C@H]([C@@H](C)CC)N(C)C(=O)[C@H](Cc2cc3ccccc3[nH]2)NC1=O
Histone deacetylase
  IC50: 2000 nM

Reference: ChEMBL document CHEMBL1165890, “Inside HDAC with HDAC inhibitors” (Eur J Med Chem, 2010)
